In brackets after ≈: the same amount, converted by molar mass. Read-outs that look alike come from different tables or passages of the source. Each block holds one molecule with its values, some of them ahead of it.
Assays:
Hep3B cells = assay: MTT assay, antiproliferation on Hep3B cells; format: cell-based; settings: for IC50: Homo sapiens, Hep3B cells, MTT
Procedure: (§1) Antiproliferations of compound 2-4 were determined by an improved MTT assay. The CAR cells were individually plated at a density of 2×10^4 cells/well onto 96-well plates and treated with Dimethyl sulfoxide (DMSO) alone (0.5% (v/v) in media served as a vehicle control) and various concentrations (0, 25, 50, 75 and 100 μM) of compound 2-4 for 24 and 48 hours. Following the above treatments, the supernatant was discarded before a 100 μL solution of MTT (500 μg/ml) was added to each well for 4 hours at 37 °C. After incubation, the medium was replaced by the addition of 200 μL DMSO to solubilize the violet formazan crystal produced from MTT. The absorbance of the dissolved formazan grained within the cells was measured at 570 nm by a microplate reader to calculate viability (data shown as % of control).
(§2) Please refer to Table 1. Hep3B cells and CAR cells were treated by different concentrations of the compounds of the invention for 48 and 72 hours, and the antiprolifieration effect of such compounds was evaluated using MTT assay. Data are presented as IC50 (μM), the concentration of 50% proliferation-inhibitory effect.
The anti-proliferative ability of compound 2-4 in hepatocellular carcinoma was evaluated in Hep3B cells using MTT assay. Hep3B cells were treated with various concentrations of compound 2-4 for 48 and 72 hours.

[1] = test system: human normal oral keratinocyte cells (OK); assay: MTT viability of normal oral keratinocytes (OK); format: cell-based; settings: 0, 25, 50 and 100 μM, 72 hours, FIG. 7 (B)
Procedure: (§3) Human normal gingival fibroblasts cells (HGF) and human normal oral keratinocyte cells (OK) were acquired from Department of Dental Hygiene, China Medical University, Taiwan. HGF and OK were cultivated in DMEM.
(§4) Both HGF and OK cells (1×10^4 cells) were placed into a 96-well plate and were incubated with 0, 25, 50 and 100 μM of compound 2-4 for 24, 48 and 72 hours. For incubation with the autophagy inhibitor, cells were pretreated with […] (3-MA, 10 mM) for 1 hour, followed by treatment with or without compound 2-4 (50 and 75 μM) for 48 hours. After washing the cells, DMEM containing MTT (0.5 mg/mL) was added to detect viability. The cell viability was expressed as % of the control.
(§5) In FIG. 7, (A) indicates HGF cells and (B) indicates OK cells after exposure to various concentrations of compound 2-4 for 72 hours. The cell viability is determined by MTT assay and the data shown represent the mean±S.E.M (n=3).

CAR cells = assay: MTT assay, antiproliferation on cisplatin-resistant head and neck squamous carcinoma (CAR) cells; format: cell-based, human; settings: for IC50: Homo sapiens, CAR cells, MTT
Procedure: The human head and neck carcinoma cell line CAL27 was obtained from American Tissue Culture Collection (ATCC). The cisplatin-resistant cell line CAR (CAL27-cisplatin resistance) was established by clonal selection of CAL27 using 10 cycles of 1 passage treatment with 10-80 μM of cisplatin (Sigma-Aldrich Corp. (St. Louis, Mo., USA) followed by a recovery period of another passage. CAR cells were cultivated in Dulbecco's modified Eagle's medium (DMEM) supplemented with 10% FBS, 100 μg/mL streptomycin, 100 U/mL penicillin G, 2 mM L-glutamine (Gibco by Life Technologies (Carlsbad, Calif., USA)) and 80 μM of cisplatin (Sigma-Aldrich Corp. (St. Louis, Mo., USA).
as §1, §2
MTT assay was utilized and CAR cells were treated with compound 2-4 in different concentration for 24, 48 and 72 hours. […] The IC50 after 72 hours of treatment was 50 μM.

Water solubility assay = format: physicochemical; settings: read-out: Water solubility, Content
Description: The water solubility of the compounds of the present invention can be determined by methods known in the art and the result is shown in Table 3.

CAR xenograft = assay: Xenograft antitumor study in CAR xenograft nude mice; format: in vivo, BALB/c nude mice
Description: All animal experiments of the invention complied with institutional guidelines (Affidavit of Approval of Animal Use Protocol) approved by the Institutional Animal Care and Use Committee (IACUC) of China Medical University (Taichung, Taiwan). All pathogen-free four-week-old male BALB/c nude mice were purchased from the National Laboratory Animal Center (Taipei, Taiwan). These animals were housed at a constant room temperature with a regular 12-hour light/12-hour dark cycle and hereafter fed a standard rodent diet and water ad libitum.
The CAR cells (1×10^7 cells/mouse) in 0.2 mL (1:1) cultural medium and Matrigel (BD Biosciences) were subcutaneously injected into the flank of nude mice. When xenograft tumors reached approximately 50 mm^3 (at day 22 after cell inoculation), thirty two mice were randomly divided into four groups with eight mice in each group. The experimental group were given oral treatments included compound 2-4 at the dosages of 25, 50 and 100 mg/kg body weight, respectively, using an everyday 30 times (dosing regimen: QD×30, p.o.); whereas control group were given orally with 30 μL of DMSO throughout the experimental period. The tumor size (mm^3) from each mouse was determined utilizing a caliper by calculating as 0.5×length×(width)^2. At the end of treatment, all animals were anaesthetized by carbon dioxide (CO2) and sacrificed on 31st day. The tumor tissues from each mouse were removed then measured and weighed individually as previously reported.
Compound 2-4 was evaluated in the CAR xenograft nude mice by oral route (p.o.) at dose of 25, 50, and 100 mg/kg/day in a schedule of QD×30. […] At the 100 mg/kg/day dose of compound 2-4, the weight of CAR tumor was reduced down to 22% that of the vehicle control (FIG. 5).

[2] = test system: Human normal gingival fibroblasts cells (HGF); assay: MTT viability of normal gingival fibroblasts (HGF); format: cell-based; settings: 0, 25, 50 and 100 μM, 72 hours, FIG. 7 (A)
Procedure: as §3, §4, §5

[3] = Biochemical analysis of blood of CAR xenograft mice after 30 days of treatment; format: in vivo, BALB/c nude mice
Procedure: All mice were monitored the relative toxicity of each group after the animals were sacrificed, and whole blood samples were drawn from the heart for biochemical measurements to evaluate the safety of compound 2-4. Briefly, blood was collected from each mouse and allowed to clot and centrifuged at 1000×g for 10 minutes at room temperature for further biochemical tests including total protein, albumin, creatinine, blood urea nitrogen (BUN), uric acid and glucose.
Furthermore, after 30 days of treatment, these mice were sacrificed and their blood samples were collected for biochemical quantification of total protein, albumin, creatinine, blood urea nitrogen, uric acid and glucose.

[4] = dose up to 3.0 g/kg/day; cited from earlier work
[5] = 48 hours, read-out: Hep 3B (IC50 (μM)) 48 hours
[6] = 72 hours, read-out: Hep 3B (IC50 (μM)) 72 hours
[7] = 48 hours, read-out: CAR (IC50 (μM)) 48 hours
[8] = 72 hours, read-out: CAR (IC50 (μM)) 72 hours
[9] = 25 mg/kg p.o. QD×30, mean ± S.E.M.
[10] = 50 mg/kg p.o. QD×30, mean ± S.E.M.
[11] = 100 mg/kg p.o. QD×30, mean ± S.E.M.

Compound: COc1cc(/C=C/c2ccc(OC(=O)C(C)(CO)CO)cc2)cc(OC)c1 [Compound 2-4, 4-(3,5-dimethoxystyryl)phenyl-3-hydroxy-2-(hydroxymethyl)-2-methylpropanoate]
inhibition on cell viability in Hep3B cells (Hep3B cells; 48 and 72 hours, FIG. 2): concentration-dependent inhibition on cell viability | anticancer activity compared with resveratrol and pterostilbene (Hep3B cells; Hep 3B and CAR cells, Table 1): more potent anticancer activity than resveratrol and pterostilbene | IC50 (Hep3B cells; 48 hours, Example 19 text, read-out: IC50 after 48 hours of treatment (FIG. 2)): 50 µM | IC50 (Hep3B cells; [5]): 63.5 µM | IC50 (Hep3B cells; [6]): 43.8 µM | cell viability of OK cells [1]: no viability impact is observed | antiproliferative effect on CAR cells (CAR cells; 24, 48 and 72 hours, FIG. 1): concentration- and time-dependent antiproliferative effect | IC50 (CAR cells; [7]): 73 µM | IC50 (CAR cells; 72 hours, Example 18 text, read-out: IC50 after 72 hours of treatment (FIG. 1)): 50 µM | IC50 (CAR cells; [8]): 45.2 µM | solubility (Water solubility assay): 18 µg/mL (≈ 48.3 µM) | tumor growth suppression (CAR xenograft; p.o. 25 mg/kg/day, QD×30): Significant tumor growth suppression | weight of CAR tumor relative to vehicle control (CAR xenograft; p.o. 100 mg/kg/day, QD×30, FIG. 5): 22% | effect on CAR tumor weight (CAR xenograft; p.o. 25, 50, 100 mg/kg/day, QD×30, FIG. 5): dose-dependent inhibitory effect | body weight change (CAR xenograft; p.o. 25, 50, 100 mg/kg/day, QD×30, FIG. 6): no significant body weight change | effect on CAR tumor size (CAR xenograft; p.o. 25, 50, 100 mg/kg/day, QD×30, FIGS. 3 and 4): dose-dependent inhibitory effect | cell viability of HGF cells [2]: no viability impact is observed | Albumin [3, 9]: 3.666 ± 0.052 g/dL | Blood urea nitrogen [3, 9]: 28.200 ± 5.784 mg/dL | Creatinine [3, 9]: 1.133 ± 0.109 mg/dL | Glucose [3, 9]: 181.333 ± 32.067 mg/dL | Total Protein [3, 9]: 5.383 ± 0.117 g/dL | Uric acid [3, 9]: 4.567 ± 0.784 mg/dL | Albumin [3, 10]: 3.417 ± 0.075 g/dL | Blood urea nitrogen [3, 10]: 30.950 ± 1.265 mg/dL | Creatinine [3, 10]: 0.910 ± 0.077 mg/dL | Glucose [3, 10]: 172.500 ± 6.504 mg/dL | Total Protein [3, 10]: 5.583 ± 0.376 g/dL | Uric acid [3, 10]: 5.450 ± 0.878 mg/dL | Albumin [3, 11]: 3.400 ± 0.089 g/dL | Blood urea nitrogen [3, 11]: 29.250 ± 3.855 mg/dL | Creatinine [3, 11]: 0.830 ± 0.128 mg/dL | Glucose [3, 11]: 196.500 ± 8.643 mg/dL | Total Protein [3, 11]: 5.283 ± 0.194 g/dL | Uric acid [3, 11]: 5.050 ± 1.882 mg/dL | toxicity when orally administered ([3]; CAR xenograft mice, oral, 30 days): very low toxicity | blood analysis result versus vehicle control mice ([3]; after 30 days of oral treatment, Table 2): no significant difference in blood analysis result

Compound: COc1cc(/C=C/c2ccc(O)cc2)cc(OC)c1 [Pterostilbene, reference compound]
IC50 (Hep3B cells; [5]): 75.3 µM | IC50 (Hep3B cells; [6]): 48.9 µM | IC50 (CAR cells; [7]): 100 µM | IC50 (CAR cells; [8]): 98.3 µM | solubility (Water solubility assay): 48 µg/mL (≈ 187 µM) | 28 days subchronic toxicity [4]: no significant adverse biochemical parameters and toxic effects were noted

Compound: CC(CO)(CO)C(=O)Oc1ccc(/C=C/c2cc(OC(=O)C(C)(CO)CO)cc(OC(=O)C(C)(CO)CO)c2)cc1 [Compound 4-3, 3,5,4′-[2,2-Bis(hydroxymethyl)propanoxy]-resveratrol]
IC50 (Hep3B cells; [5]): 151 µM | IC50 (Hep3B cells; [6]): 95 µM | IC50 (CAR cells; [7]): 149 µM | IC50 (CAR cells; [8]): 124 µM | solubility (Water solubility assay): 372 µg/mL (≈ 646 µM)

More lines, now with the values ahead:

IC50 (Hep3B cells; [5]): 106 µM | IC50 (Hep3B cells; [6]): 66.5 µM | IC50 (CAR cells; [7]): 56.5 µM | IC50 (CAR cells; [8]): 59.8 µM | solubility (Water solubility assay): > 1000 µg/mL
Compound: COc1cc(/C=C/c2ccc(OC(=O)C(C)(CO)CO)cc2)cc(OC(=O)C(C)(CO)CO)c1 [Compound 8-3, 3-methyl-5,4′-[2,2-Bis(hydroxymethyl)propanoxy]-resveratrol]

IC50 (Hep3B cells; [5]): 148 µM | IC50 (Hep3B cells; [6]): 62 µM | IC50 (CAR cells; [7]): 103 µM | IC50 (CAR cells; [8]): 116 µM | solubility (Water solubility assay): 306 µg/mL (≈ 715 µM)
Compound: CC(=O)Oc1cc(/C=C/c2ccc(OC(=O)C(C)(CO)CO)cc2)cc(OC(C)=O)c1 [Compound 9-4, 3,5-acetyl-4′-[2,2-Bis(hydroxymethyl)propanoxy]-resveratrol]
